Reference: patent US12178875B2, “Lymphatic system-directing lipid prodrugs” (Seaport Therapeutics, Inc., priority 2017, dated 2024)
Blank lines part the entries; values can stand above or below the compound they belong to.

Columns and labels:
[1] = In vitro release of therapeutic agent from prodrugs in plasma supplemented with lipoprotein lipase; type: in vitro ADME, rat
Description: The percentage of MPA released at 60 minutes in LPL-supplemented rat plasma was also determined for selected compounds. […] The designation “**” indicates a release % of >25% to 50%. The designation “***” indicates a release % of >50% to 75%. The designation “****” indicates a release % of >75%.
In order to probe the release of free drug from TG prodrugs in the systemic circulation, prodrugs were incubated with plasma (rat, mouse, dog, pig or human) supplemented with lipoprotein lipase (LPL, 200 IU/ml). LPL is a key enzyme required for the hydrolysis of lipoprotein associated TG in the systemic circulation and is therefore expected to be a key contributor to lipolysis of the re-esterified drug-TG construct in plasma, largely via liberation of fatty acids in the sn-1 and the sn-3 position of the TG-mimetic, prior to drug release from the 2′ position via esterase hydrolysis. LPL is […] is tethered to the luminal surface of vascular endothelial cells under physiological conditions. In the current in vitro studies, plasma was therefore supplemented with LPL to better reflect the in vivo situation. To start hydrolysis, 10 μl of LPL solution (10,000 IU/ml) was added to a mixture of 10 μl of prodrug solution (1 mg/ml dissolved in acetonitrile) and 500 μl of blank plasma. The mixture was incubated at 37° C. Samples (20 μl) of the incubation solution were taken at 0, 5, 15, 30, 60, 90, 120 and 180 minutes post-incubation and added to 180 μl of MeCN to stop lipolysis. The mixture was vortexed and centrifuged at 4500×g for 5 minutes to precipitate proteins prior to analysis. The supernatant was analyzed by HPLC-MS/MS for the potential products (MG form, acid form, and free drug) of prodrug hydrolysis.
To assess the stability and release profile of compounds of the present invention, compounds TAC-I-18 and TAC-I-20 were incubated with rat plasma and the concentrations of compounds, parent drug tacrolimus, and acid were monitored by LCMS for about three hours.

[2] = Lymphatic transport assay in mesenteric lymph-duct cannulated rats; type: in vivo, rat; conditions: total MPA related compound, intraduodenal infusion, anaesthetised mesenteric lymph-duct cannulated rats; class symbols
Description: In order to assess the lymphatic transport of disclosed lipid prodrugs in rats, the mesenteric lymph ducts of the rats used in this study were cannulated to allow continual collection of mesenteric lymph. Lipid formulations containing the compound of interest were then administered to the animals, lymph was collected, and drug concentrations in the lymph samples were quantified.
Lipid-based formulations of the compounds of the invention or control compounds were prepared as previously described (Trevaskis, N. L. et al., Pharmaceutical Research, 2005, 22(11), 1863-1870, WO 2016/023082, and WO 2017/041139, hereby incorporated by reference.
In brief, either 1 or 2 mg of test prodrug, 40 mg oleic acid and 25 mg Tween 80 were mixed in a glass vial and incubated at 37° C. for 12-18 h to equilibrate. An aqueous phase consisting of 5.6 ml phosphate buffered saline (PBS, pH 7.4) was subsequently added to the lipid phase (MPA was dissolved in PBS for the preparation of MPA containing formulations) and the formulation emulsified by ultrasonication with a Misonix XL 2020 ultrasonic processor (Misonix, Farmingdale, NY, USA) equipped with a 3.2-mm microprobe tip running at 30% of the maximal amplitude of […] and a frequency of 20 kHz for 2 min at room temperature. Doses for administering to more than one animal can be prepared in one batch by suitably increasing the quantities given above. Drug/prodrug concentrations in all formulations were verified using HPLC-MS.
Male Sprague-Dawley (SD) rats were selected for the lymphatic transport studies involving mycophenolic acid lipid prodrugs. Depending on the therapeutic agent, male, female, or both may be selected for study. Rats (typically 240-320 g) were maintained on a standard diet and fasted overnight with free access to water prior to experiments.
Anesthetized rats were placed on a heated pad at 37° C. and cannulas inserted into the duodenum (for formulation administration and rehydration), mesenteric lymph duct (for lymph collection), and carotid artery (in cases where blood collection was conducted). Post-surgery, rats were re-hydrated for 0.5 h via intraduodenal infusion of normal saline at 2.8 mL/h. […] The collection tubes were changed hourly and lymph flow was measured gravimetrically. […]
Drug concentration in lymph is expressed as total drug and includes free drug and drug associated with different glycerides. […]
Transport of compounds into lymph during each hourly collection period was calculated from the product of the volume of lymph collected and the measured concentrations in lymph. For fluorescently-labelled compounds such as a BDP-conjugate, the concentrations of total compound may be measured by fluorescence spectroscopy without hydrolysis. […]

[3] = mice, oral, multiple dose study: 2 times daily for 2 days, samples on the 3rd day (FIG. 8A/8B)
Description: This experiment included a single and multiple dose study. In the multiple dose study, dosing of either free MPA or MPA-2-TG (MPA-I-34, structure below) 2 times daily was performed for 2 days followed by collecting samples from mesenteric or peripheral lymph nodes on the 3rd day after dosing.
The concentrations of free MPA were measured for both groups of mice.

[4] = rat plasma supplemented with LPL, 180 min (FIG. 9, FIG. 10)

Structure (SMILES): CCCCCCCCCCCCCCCC(=O)OCC(COC(=O)CCCCCCCCCCCCCCC)OC(=O)CC(C)CCCCCCCC(C)C(=O)OCCCCC(=O)Oc1c(C/C=C(\C)CCC(=O)OC)c(OC)c(C)c2c1C(=O)OC2 (stereo not drawn) [MPA-I-22, (E)-12-(1,3-Bis(palmitoyloxy)propan-2-yl) 1-(5-((6-methoxy-5-(6-methoxy-3-methyl-6-oxohex-2-en-1-yl)-7-methyl-3-oxo-1,3-dihydroisobenzofuran-4-yl)oxy)-5-oxopentyl) 2,10-dimethyldodecanedioate]
MPA released after 180 min [1, 4]: about 80% | monoglyceride (MG) peak after 180 min [1, 4]: almost completely disappeared

Structure (SMILES): CCCCCCCCCCCCCCCC(=O)OCC(COP(=O)([O-])OCC[N+](C)(C)C)OC(=O)CC/C(C)=C/Cc1c(O)c2c(c(C)c1OC)COC2=O (stereo not drawn) [MPA-I-39]
Cumulative lymphatic transport % dose (Mean ± SD, or Range if n = 2) [2]: C (less than 1% and greater than 0.24% (<1% and >0.24%))

Structure (SMILES): CCCCCCCCCCCCCCCC(=O)OCC(COC(=O)CCCCCCCCCCCCCCC)OC(=O)CC/C(C)=C/Cc1c(O)c2c(c(C)c1OC)COC2=O [MPA-TG]
concentrations of free MPA in mesenteric lymph nodes compared with MPA [3]: Much higher concentrations

Now from value to compound:

Percentage MPA release at 60 min in LPL supplemented rat plasma ([1]; 60 min, n = 3 unless specified otherwise): **** (a release % of >75%) | Cumulative lymphatic transport % dose (Mean ± SD, or Range if n = 2) [2]: A (greater than 10% (>10%))
Structure (SMILES): CCCCCCCCCCCCCCCC(=O)OCC(COC(=O)CCCCCCCCCCCCCCC)OC(=O)CCCCCC(=O)Oc1c(C/C=C(\C)CCC(=O)OC)c(OC)c(C)c2c1C(=O)OC2 [MPA-I-19]

monoglyceride (MG) peak after 180 min [1, 4]: almost completely disappeared
Structure (SMILES): CCCCCCCCCCCCCCCC(=O)OCC(COC(=O)CCCCCCCCCCCCCCC)OC(=O)CC(C)CCCCCCCC(C)C(=O)Oc1c(C/C=C(\C)CCC(=O)OC)c(OC)c(C)c2c1C(=O)OC2 (stereo not drawn) [MPA-I-20]

Cumulative lymphatic transport % dose (Mean ± SD, or Range if n = 2) [2]: A (greater than 10% (>10%))
Structure (SMILES): CCCCCCCCCCCCCCCC(=O)OCC(COC(=O)CCCCCCCCCCCCCCC)OC(=O)COC(=O)CC/C(C)=C/Cc1c(O)c2c(c(C)c1OC)COC2=O [MPA-I-46]

Cumulative lymphatic transport % dose (Mean ± SD, or Range if n = 2) [2]: A (greater than 10% (>10%))
Structure (SMILES): CCCCCCCCCCCCCCCC(=O)OCC(COC(=O)CCCCCCCCCCCCCCC)OC(=O)CC(C)COC(=O)CC/C(C)=C/Cc1c(O)c2c(c(C)c1OC)COC2=O (stereo not drawn) [MPA-I-50]
